From patent US10472341B2, “Bicyclic tetrahydrothiazepine derivatives useful for the treatment of neoplastic and/or infectious diseases” (APEIRON BIOLOGICS AG, priority 2015, dated 2019)

System: CD8 T cells
Assay: Reactivity of isolated CFSE-labeled CD8 T cells to TCR stimulation (anti-CD3/anti-CD28): cytokines, proliferation, CD25
Type: cell-based, human
Conditions: for CD25 expression [% positive cells] Average / Cell Proliferation [Cell divisions/cell] Average / IFN-gamma production [ng/ml] Average / IL-2 production [ng/ml] Average / TNF-alpha production [ng/ml] Average: anti-CD3/anti-CD28
Description: • Buffy coat content was transferred to sterile plastic bottle and filled up to 480 ml with PBS, and distributed equally to 16×50 ml tubes (30 ml/tube) • Underlayed with ˜11 ml Lymphoprep and centrifuged 20 min (2200 rpm) • The interphase containing lymphocytes was taken off with transfer pipette, cells were washed twice with PBS and pooled to one tube to determine cell count (Coulter Diff ACT) Isolation of Immune Cell Subfractions from PBMCs by MACS • PBMCs were resuspended in MACS buffer (80 μl MACS-buffer/10^7 cells) and cells were isolated with Auto-MACS device using respective kits following manufacturer's recommendations TCR Stimulation and Measurement of T Cell Activation
Isolated T cells were plated in Xvivo medium at 1.5*10 ^5 cells per in 96 well culture plates and TCR-stimulated with anti-CD3/28 mAbs in the presence of compound as indicated. Cytokine production was determined at 24 h or 48 h following TCR stimulation in cell culture supernatants using commercially available ELISA kits (BD and eBioscience) as recommended by the manufacturer. T cell proliferation and CD25 expression (CD25-PC5 reagent purchased from Beckman Coulter) was determined by flow cytometry (Beckman-Coulter FC500) and analysed with Kaluza Software. For measurement of CD69 expression, isolated CD4 and CD8 T cells were plated in Xvivo medium at […] per in 96 well culture plates and TCR-stimulated with anti-CD3/28 mAbs in the presence of compound. CD69 expression was determined at 24 h following TCR stimulation by flow cytometry (CD4eF450, CD8APCeF780 and CD69-PC7 reagent purchased from eBioscience) and analysed with Kaluza Software.
Isolated CD8 T cells were CFSE-labeled and stimulated with anti-CD3 and anti-CD28 antibodies.

**Q.** What does the source list for CCCCNC(=O)c1ccc2c(c1)N(Cc1ccc(OC(F)(F)F)cc1)C(=O)[C@@H](N)CS2(=O)=O.Cl [Example 67, (3R)-3-amino-N-butyl-1,1,4-trioxo-5-{[4-(trifluoromethoxy)phenyl]methyl}-2,3,4,5-tetrahydro-1λ^6,5-benzothiazepine-7-carboxamide hydrochloride]?
**A.** CD25 expression [% positive cells] Average (0.05 μM): 61.07 % positive cells; Cell Proliferation [Cell divisions/cell] Average (0.05 μM): 1.57 Cell divisions/cell; IFN-gamma production [ng/ml] Average (0.05 μM): 0.14 ng/mL; IL-2 production [ng/ml] Average (0.05 μM): 1.17 ng/mL; TNF-alpha production [ng/ml] Average (0.05 μM): 1.09 ng/mL; CD25 expression [% positive cells] Average (0.1 μM): 64.24 % positive cells; Cell Proliferation [Cell divisions/cell] Average (0.1 μM): 1.72 Cell divisions/cell; IFN-gamma production [ng/ml] Average (0.1 μM): 0.22 ng/mL; IL-2 production [ng/ml] Average (0.1 μM): 2.32 ng/mL; TNF-alpha production [ng/ml] Average (0.1 μM): 1.55 ng/mL; CD25 expression [% positive cells] Average (0.25 μM): 68.81 % positive cells; Cell Proliferation [Cell divisions/cell] Average (0.25 μM): 1.84 Cell divisions/cell; IFN-gamma production [ng/ml] Average (0.25 μM): 0.31 ng/mL; IL-2 production [ng/ml] Average (0.25 μM): 4.01 ng/mL; TNF-alpha production [ng/ml] Average (0.25 μM): 2.16 ng/mL; CD25 expression [% positive cells] Average (0.5 μM): 67.89 % positive cells; Cell Proliferation [Cell divisions/cell] Average (0.5 μM): 1.88 Cell divisions/cell; IFN-gamma production [ng/ml] Average (0.5 μM): 0.43 ng/mL; IL-2 production [ng/ml] Average (0.5 μM): 7.64 ng/mL; TNF-alpha production [ng/ml] Average (0.5 μM): 3.13 ng/mL; CD25 expression [% positive cells] Average (1 μM): 71.00 % positive cells; Cell Proliferation [Cell divisions/cell] Average (1 μM): 1.94 Cell divisions/cell; IFN-gamma production [ng/ml] Average (1 μM): 0.61 ng/mL; IL-2 production [ng/ml] Average (1 μM): 11.30 ng/mL; TNF-alpha production [ng/ml] Average (1 μM): 4.04 ng/mL; CD25 expression [% positive cells] Average (2.5 μM): 71.35 % positive cells; Cell Proliferation [Cell divisions/cell] Average (2.5 μM): 1.93 Cell divisions/cell; IFN-gamma production [ng/ml] Average (2.5 μM): 0.79 ng/mL; IL-2 production [ng/ml] Average (2.5 μM): 16.77 ng/mL; TNF-alpha production [ng/ml] Average (2.5 μM): 5.37 ng/mL; CD25 expression [% positive cells] Average (5 μM): 71.76 % positive cells; Cell Proliferation [Cell divisions/cell] Average (5 μM): 1.91 Cell divisions/cell; IFN-gamma production [ng/ml] Average (5 μM): 0.91 ng/mL; IL-2 production [ng/ml] Average (5 μM): 17.30 ng/mL; TNF-alpha production [ng/ml] Average (5 μM): 6.68 ng/mL; CD25 expression [% positive cells] Average (10 μM): 71.90 % positive cells; Cell Proliferation [Cell divisions/cell] Average (10 μM): 1.83 Cell divisions/cell; IFN-gamma production [ng/ml] Average (10 μM): 1.15 ng/mL; IL-2 production [ng/ml] Average (10 μM): 19.63 ng/mL; TNF-alpha production [ng/ml] Average (10 μM): 7.50 ng/mL; CD25 expression [% positive cells] Average (20 μM): 69.70 % positive cells; Cell Proliferation [Cell divisions/cell] Average (20 μM): 1.68 Cell divisions/cell; IFN-gamma production [ng/ml] Average (20 μM): 1.32 ng/mL; IL-2 production [ng/ml] Average (20 μM): 19.92 ng/mL; TNF-alpha production [ng/ml] Average (20 μM): 7.13 ng/mL; production of IL-2, IFN-gamma and TNF-alpha, CD25 expression and T cell proliferation (anti-CD3 and anti-CD28): strongly enhanced
